Results: paper PMC9243336, “Santalol Isomers Inhibit Transthyretin Amyloidogenesis and Associated Pathologies in Caenorhabditis elegans” (Frontiers in Pharmacology, 2022)

How the values were obtained:
[1] = biological target: T1, Transthyretin (TTR, prealbumin), wild type (Homo sapiens, UniProt P02766); experiment: acid-induced (pH […] h) aggregation turbidity; urea denaturation by Trp fluorescence; assay type: biochemical
T1 construct: homotetramer; prealbumin from human plasma

Transthyretin (TTR) V30M = Transthyretin (TTR) V30M (Homo sapiens, UniProt P02766, V50M); experiment: as above; assay type: biochemical

EC50 [1] [µM] | EC50 (Transthyretin (TTR) V30M) [µM] | SMILES
36.7 ± 1.2 | 44.3 ± 3.5 | C/C(=C/CC[C@@]1(C)C2C[C@@H]3[C@H](C2)C31C)CO [α-santalol]
31.1 ± 2.4 | 34.5 ± 2.8 | C=C1[C@@H]2CC[C@@H](C2)[C@@]1(C)CC/C=C(/C)CO [β-santalol]
